Source: patent publication US12408664B2 (priority 2018, dated 2025)
Where “and” joins values, the source holds several entries; their conditions need not be identical. Equal entries are not always repeated. Entries after “also recorded” stand apart in the source; their conditions may differ. Where two headings read alike, the source gives them in different places.

Columns and labels:
R. solani [1] = assay: Plug transfer to PDA plates without calcium propionate (fungistatic or fungicidal); assay type: cell-based, Rhizoctonia solani
M. poae [2] = assay type: cell-based, Magnaporthe poae; settings: MEB with 1%, 2%, 5% or 10% (w/v) calcium propionate; five days
G. graminis [3] = assay: Plug transfer to PDA plates without calcium propionate (fungistatic or fungicidal); assay type: cell-based, Gaeumannomyces graminis
M. poae [4] = assay type: cell-based, Magnaporthe poae
S. homoeocarpa [5] = assay: Growth on PDA with calcium propionate fully integrated into the agarose; assay type: cell-based, Scerotinia homoeocarpa; settings: for Growth, S. homeocarpa: single plate
Protocol: (§1) In contrast to the zone of inhibition assays described in Examples 1-3, for this experiment, PDA with calcium propionate fully integrated into the agarose was prepared. Thus, inoculants were grown on plates in which calcium propionate was incorporated at a uniform concentration throughout the plate, rather than the zones of concentration established by simple diffusion in the zone of inhibition assays. The PDA plates were amended with 5, 7.5, 10, or 12% (w/v) calcium propionate. Growth diameter was recorded for 15 days post inoculation. The data shown in Table 3 represent the results of single plate tests.

S. homoeocarpa [6] = assay: Disrupted well-established culture transferred to amended MEB; assay type: cell-based, Scerotinia homoeocarpa; settings: MEB with 1%, 2%, 5% or 10% (w/v) calcium propionate; five days
From the text: To examine the effect of calcium propionate on well-established cultures of S. homoeocarpa and M. poae, MEB was inoculated with agarose plugs as previously described. Cultures were allowed to grow for 10 days to establish a robust hyphal mat. After 10 days, hyphal mats were disrupted by pipetting to break up mycelium (disrupted culture). One milliliter of disrupted culture was transferred to MEB amended with 1%, 2%, 5%, or 10% (w/v) calcium propionate. MEB without calcium propionate was used as a control. Cultures were allowed to grow for five days following inoculation with disrupted mycelium.

turfgrass = assay: Golf Course 2: appearance of treated turfgrass; assay type: in vivo, Agrostis capillaris; settings: 3-4 grams per square meter every 10 days; 10 days following initial application
Protocol: Calcium propionate was dissolved in water to form a 5% (w/v) solution. […] The turfgrass was comprised primarily of Agrostis capillaris. The calcium propionate 5% (w/v) solution was sprayed onto the turfgrass at a concentration of 3-4 grams per square meter every 10 days.

M. poae [7] = assay type: cell-based, Magnaporthe poae; remark: listed apart in the source
R. solani [8] = assay: Growth on PDA with calcium propionate fully integrated into the agarose; assay type: cell-based, Rhizoctonia solani; settings: for Growth, R. solani: single plate
Protocol: as §1

M. poae [9] = assay type: cell-based, Magnaporthe poae; remark: listed apart in the source
M. poae [10] = assay type: cell-based, Magnaporthe poae; remark: listed apart in the source
G. graminis [11] = assay: Established liquid cultures, two days calcium propionate then washout; assay type: cell-based, Gaeumannomyces graminis
Protocol: To further examine the impact of calcium propionate on established liquid cultures, MEB was inoculated by plug transfer and cultures were allowed to grow for one to six days. Following this, calcium propionate was added to active cultures to a final concentration of 1%, 2%, or 5% (w/v); control cultures had no calcium propionate. Calcium propionate was then added to established one to six day old cultures and cultures were allowed to grow in the presence of calcium propionate for two days, after which, calcium propionate was washed out and cultures were returned to MEB only. Growth following calcium propionate washout was recorded over 14 days.

[12] = plugs initially grown on 5, 7.5, 10 or 12% (w/v) calcium propionate, observed 14 days
[13] = any of the concentrations tested (5, 7.5, 10, 12% w/v), 15 days
[14] = PDA with 5% (w/v) calcium propionate, day 4
[15] = PDA with 5% (w/v) calcium propionate, day 5
[16] = PDA with 5% (w/v) calcium propionate, day 8
[17] = PDA with 5% (w/v) calcium propionate, day 11
[18] = PDA with 5% (w/v) calcium propionate, day 15
[19] = PDA with 7.5% (w/v) calcium propionate, day 4
[20] = PDA with 7.5% (w/v) calcium propionate, day 5
[21] = PDA with 7.5% (w/v) calcium propionate, day 8
[22] = PDA with 7.5% (w/v) calcium propionate, day 11
[23] = PDA with 7.5% (w/v) calcium propionate, day 15
[24] = PDA with 10% (w/v) calcium propionate, day 4
[25] = PDA with 10% (w/v) calcium propionate, day 5
[26] = PDA with 10% (w/v) calcium propionate, day 8
[27] = PDA with 10% (w/v) calcium propionate, day 11
[28] = PDA with 10% (w/v) calcium propionate, day 15
[29] = PDA with 12% (w/v) calcium propionate, day 4
[30] = PDA with 12% (w/v) calcium propionate, day 5
[31] = PDA with 12% (w/v) calcium propionate, day 8
[32] = PDA with 12% (w/v) calcium propionate, day 11
[33] = PDA with 12% (w/v) calcium propionate, day 15
[34] = 1%, 2% or 5% (w/v), established one to six day old cultures, two days

CCC(=O)[O-].CCC(=O)[O-].[Ca+2] [calcium propionate]
concentration required to achieve a fungicidal effect on R. solani (R. solani [1]): 10-12 % (w/v) | fungistatic or fungicidal effect, R. solani (R. solani [1]; 5% (w/v) calcium propionate): fungistatic rather than fungicidal | growth on unamended PDA after plug transfer, R. solani (R. solani [1]; plugs from 5% and 7.5% (w/v) calcium propionate plates, 6-7 days following transfer): luxuriant growth | growth on unamended PDA after plug transfer, R. solani (R. solani [1]; plugs from 10% and 12% (w/v) calcium propionate plates): did not grow | growth of disrupted culture, M. poae (M. poae [2]): No growth was observed | fungistatic or fungicidal effect, G. graminis (G. graminis [3]; 5% (w/v) calcium propionate): fungicidal effect | growth on unamended PDA after plug transfer, G. graminis (G. graminis [3]; [12]): No growth was seen | Growth, M. Poae (M. poae [4]; PDA with 5% (w/v) calcium propionate, day 4, single plate): 0 cm | Growth, M. Poae (M. poae [4]; PDA with 5% (w/v) calcium propionate, day 5, single plate): 0 cm | Growth, M. Poae (M. poae [4]; PDA with 5% (w/v) calcium propionate, day 8, single plate): 0 cm | Growth, M. Poae (M. poae [4]; PDA with 5% (w/v) calcium propionate, day 11, single plate): 0 cm | Growth, M. Poae (M. poae [4]; PDA with 5% (w/v) calcium propionate, day 15, single plate): 0 cm | Growth, M. Poae (M. poae [4]; PDA with 7.5% (w/v) calcium propionate, day 4, single plate): 0 cm | Growth, M. Poae (M. poae [4]; PDA with 7.5% (w/v) calcium propionate, day 5, single plate): 0 cm | Growth, M. Poae (M. poae [4]; PDA with 7.5% (w/v) calcium propionate, day 8, single plate): 0 cm | Growth, M. Poae (M. poae [4]; PDA with 7.5% (w/v) calcium propionate, day 11, single plate): 0 cm | Growth, M. Poae (M. poae [4]; PDA with 7.5% (w/v) calcium propionate, day 15, single plate): 0 cm | Growth, M. Poae (M. poae [4]; PDA with 10% (w/v) calcium propionate, day 4, single plate): 0 cm | Growth, M. Poae (M. poae [4]; PDA with 10% (w/v) calcium propionate, day 5, single plate): 0 cm | Growth, M. Poae (M. poae [4]; PDA with 10% (w/v) calcium propionate, day 8, single plate): 0 cm | Growth, M. Poae (M. poae [4]; PDA with 10% (w/v) calcium propionate, day 11, single plate): 0 cm | Growth, M. Poae (M. poae [4]; PDA with 10% (w/v) calcium propionate, day 15, single plate): 0 cm | Growth, M. Poae (M. poae [4]; PDA with 12% (w/v) calcium propionate, day 4, single plate): 0 cm | Growth, M. Poae (M. poae [4]; PDA with 12% (w/v) calcium propionate, day 5, single plate): 0 cm | Growth, M. Poae (M. poae [4]; PDA with 12% (w/v) calcium propionate, day 8, single plate): 0 cm | Growth, M. Poae (M. poae [4]; PDA with 12% (w/v) calcium propionate, day 11, single plate): 0 cm | Growth, M. Poae (M. poae [4]; PDA with 12% (w/v) calcium propionate, day 15, single plate): 0 cm | Growth, M. Poae (M. poae [4]; [13]): no growth | Growth, S. homeocarpa (S. homoeocarpa [5]; [14]): 0 cm | Growth, S. homeocarpa (S. homoeocarpa [5]; [15]): 0 cm | Growth, S. homeocarpa (S. homoeocarpa [5]; [16]): 0 cm | Growth, S. homeocarpa (S. homoeocarpa [5]; [17]): 0 cm | Growth, S. homeocarpa (S. homoeocarpa [5]; [18]): 0 cm | Growth, S. homeocarpa (S. homoeocarpa [5]; [19]): 0 cm | Growth, S. homeocarpa (S. homoeocarpa [5]; [20]): 0 cm | Growth, S. homeocarpa (S. homoeocarpa [5]; [21]): 0 cm | Growth, S. homeocarpa (S. homoeocarpa [5]; [22]): 0 cm | Growth, S. homeocarpa (S. homoeocarpa [5]; [23]): 0 cm | Growth, S. homeocarpa (S. homoeocarpa [5]; [24]): 0 cm | Growth, S. homeocarpa (S. homoeocarpa [5]; [25]): 0 cm | Growth, S. homeocarpa (S. homoeocarpa [5]; [26]): 0 cm | Growth, S. homeocarpa (S. homoeocarpa [5]; [27]): 0 cm | Growth, S. homeocarpa (S. homoeocarpa [5]; [28]): 0 cm | Growth, S. homeocarpa (S. homoeocarpa [5]; [29]): 0 cm | Growth, S. homeocarpa (S. homoeocarpa [5]; [30]): 0 cm | Growth, S. homeocarpa (S. homoeocarpa [5]; [31]): 0 cm | Growth, S. homeocarpa (S. homoeocarpa [5]; [32]): 0 cm | Growth, S. homeocarpa (S. homoeocarpa [5]; [33]): 0 cm | growth, S. homoeocarpa (S. homoeocarpa [5]; [13]): no growth | growth of disrupted culture, S. homoeocarpa (S. homoeocarpa [6]): No growth was observed | appearance of the turfgrass (turfgrass): appeared healthy | growth inhibition in repeated experiments, M. poae (M. poae [7]; 2-4% (w/v) calcium propionate, repeat, data not shown): mixed | Growth, M. Poae (M. poae [7]; 5-12% (w/v) calcium propionate, day 2, average ± SD of three plates): 1.1 ± 0.1 cm | Growth, M. Poae (M. poae [7]; 5-12% (w/v) calcium propionate, day 3, average ± SD of three plates): 1.5 ± 0.2 cm | Growth, M. Poae (M. poae [7]; 5-12% (w/v) calcium propionate, day 6, average ± SD of three plates): 2.1 ± 0.4 cm | Growth, M. Poae (M. poae [7]; 5-12% (w/v) calcium propionate, day 7, average ± SD of three plates): 3.1±0.4 cm | Growth, M. Poae (M. poae [7]; 5-12% (w/v) calcium propionate, day 10, average ± SD of three plates): 5.8 ± 0.7 cm | Growth, M. Poae (M. poae [7]; 5-12% (w/v) calcium propionate, day 13, average ± SD of three plates): 8.2 ± 0.5 cm | growth inhibition, M. poae (M. poae [7]; wells 0.1-0.5% (w/v) calcium propionate, observed over seven days): no growth inhibition was observed | Growth, M. Poae (M. poae [7]; wells 0.5-4% (w/v) calcium propionate, day 2, average ± SD of two plates): 1.5 ± 0.2 cm | Growth, M. Poae (M. poae [7]; wells 0.5-4% (w/v) calcium propionate, day 5, average ± SD of two plates): 4.3 ± 0.1 cm | Growth, M. Poae (M. poae [7]; wells 0.5-4% (w/v) calcium propionate, day 7, average ± SD of two plates): 6.9 ± 0.1 cm | growth inhibition, M. poae (M. poae [7]; wells 0.5-4% (w/v) calcium propionate, seven day growth period): clear growth inhibition; also recorded: inhibited to a similar degree | Growth, R. solani (R. solani [8]; [14]): 1.3 cm | Growth, R. solani (R. solani [8]; [15]): 1.7 cm | Growth, R. solani (R. solani [8]; [16]): 2.5 cm | Growth, R. solani (R. solani [8]; [17]): 3.2 cm | Growth, R. solani (R. solani [8]; [18]): 4.6 cm | Growth, R. solani (R. solani [8]; [19]): 0 cm | Growth, R. solani (R. solani [8]; [20]): 1 cm | Growth, R. solani (R. solani [8]; [21]): 1.2 cm | Growth, R. solani (R. solani [8]; [22]): 1.2 cm | Growth, R. solani (R. solani [8]; [23]): 2.0 cm and 2 cm | Growth, R. solani (R. solani [8]; [24]): 0 cm | Growth, R. solani (R. solani [8]; [25]): 0 cm | Growth, R. solani (R. solani [8]; [26]): 0 cm | Growth, R. solani (R. solani [8]; [27]): 0 cm | Growth, R. solani (R. solani [8]; [28]): 0 cm | growth inhibition, R. solani (R. solani [8]; PDA with 10% and 12% (w/v) calcium propionate, 15 days): fully inhibited growth | Growth, R. solani (R. solani [8]; [29]): 0 cm | Growth, R. solani (R. solani [8]; [30]): 0 cm | Growth, R. solani (R. solani [8]; [31]): 0 cm | Growth, R. solani (R. solani [8]; [32]): 0 cm | Growth, R. solani (R. solani [8]; [33]): 0 cm | fungistatic or fungicidal effect, M. poae (M. poae [9]; 5% (w/v) calcium propionate): fungicidal effect | growth on unamended PDA after plug transfer, M. poae (M. poae [9]; [12]): No growth was seen | growth recovery over 14 days after removal, M. poae (M. poae [10]; 1% or 2% (w/v) calcium propionate): varying degrees of growth recovery | growth while calcium propionate was present, M. poae (M. poae [10]; [34]): growth was inhibited | growth recovery over 14 days after removal, M. poae (M. poae [10]; 5% (w/v) treatment): no growth recovery was observed | growth three days following removal of calcium propionate, M. poae (M. poae [10]; all concentrations tested (1-5% w/v)): continued growth inhibition | growth while calcium propionate was present, G. graminis (G. graminis [11]; [34]): growth was inhibited | growth three days following removal of calcium propionate, G. graminis (G. graminis [11]; all concentrations tested (1-5% w/v), data not shown): continued growth inhibition | growth up to two weeks following calcium propionate removal, G. graminis (G. graminis [11]; concentrations as low as 1% (w/v)): no growth was observed
